Test results taken from paper PMC8533206 (Antioxidants, 2021).
“Also recorded” adds a separate entry of the source.

Tested on: PC12 cells
Assay: Rotenone-induced ROS generation in PC12 cells (H2-DCFDA)
Type: cell-based, rat
Conditions: 10 μM compound, rotenone 1 μM 20 h
Experimental: (§1) The involvement of oxidative stress in the observed reduction in cell viability was investigated using the fluorescent dye H2-DCFDA as described previously. Briefly, cells were loaded with 10 μM H2-DCFDA for 30 min at 37 °C. Subsequently, cells were exposed for 4 h to 10 μM of test compounds followed by the addition of 50 μM 6-OHDA or 1 μM rotenone for 20 h, and fluorescence was measured spectrophotometrically at 488/520 nm in a microplate reader (SpectraMax M2e). N-acetylcysteine (NAC, 5 mM) was included as a […] control for oxidative stress.

With `COC(=O)c1ccc2c(ccn2C(=O)c2ccc(Cl)c(Cl)c2)c1` [Compound 7b, Methyl 1-(3,4-dichlorobenzoyl)-1H-indole-5-carboxylate] as the compound, how does the “Effect on rotenone-induced intracellular ROS production” value read?
The value was “attenuated”.

For `O=C(Nc1ccc(Br)cc1)c1ccc2[nH]ccc2c1` [Compound 8b, N-(4-bromophenyl)-1H-indole-5-carboxamide], which “Effect on rotenone-induced intracellular ROS production” value is on record?
Its value is “attenuated”.

With `O=C(Nc1ccc2c(c1)OCO2)c1ccc2[nH]ccc2c1` [Compound 8e, N-(benzo[d][1,3]dioxol-5-yl)-1H-indole-5-carboxamide] as the compound, how does the “Effect on rotenone-induced intracellular ROS production” value read?
The value was “attenuated”.

For `O=C(Nc1ccc(I)cc1)c1ccc2[nH]ccc2c1` [Compound 8a, N-(4-iodophenyl)-1H-indole-5-carboxamide], which “Effect on rotenone-induced intracellular ROS production” value is on record?
Its value is “not effective”.

Target: T1, Human recombinant MAO-A (hMAO-A) (Homo sapiens, UniProt P21397)
T1 construct: purchased Sigma-Aldrich; host or cells: insect cells
T1 sequence (P21397 1-527): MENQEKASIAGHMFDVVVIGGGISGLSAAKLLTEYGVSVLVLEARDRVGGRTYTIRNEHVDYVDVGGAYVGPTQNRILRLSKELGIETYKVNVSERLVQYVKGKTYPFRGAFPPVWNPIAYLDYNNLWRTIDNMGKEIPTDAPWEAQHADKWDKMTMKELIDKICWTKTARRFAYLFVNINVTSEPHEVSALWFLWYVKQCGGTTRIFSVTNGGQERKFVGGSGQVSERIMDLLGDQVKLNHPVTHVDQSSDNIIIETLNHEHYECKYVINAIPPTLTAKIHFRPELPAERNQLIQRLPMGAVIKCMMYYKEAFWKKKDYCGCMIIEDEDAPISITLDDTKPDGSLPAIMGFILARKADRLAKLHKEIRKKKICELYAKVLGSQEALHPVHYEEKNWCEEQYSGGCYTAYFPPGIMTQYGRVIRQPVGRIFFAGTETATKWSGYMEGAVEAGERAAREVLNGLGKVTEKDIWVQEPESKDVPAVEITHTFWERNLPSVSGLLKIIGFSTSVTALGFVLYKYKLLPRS
Assay: MAO-A inhibition assay (Amplex Red fluorescence, p-tyramine substrate)
Type: biochemical
Conditions: not given
Experimental: The biological evaluation of the tested compounds over both MAO-A and MAO-B was performed following the previously reported method. The MAO activity was measured in relative fluorescence units (RFU) evoked by peroxidase-catalyzed oxidation of Amplex Red® to resorufin, in which H2O2 generated by MAO reaction was used as the electron donor. Human recombinant MAO-A (hMAO-A) and MAO-B (hMAO-B) enzymes expressed in insect cells were obtained from Sigma-Aldrich. The 2 μL of test compound in DMSO ([…]) was treated with 98 μL of hMAO enzyme solution in 50 mM sodium phosphate buffer (pH 7.4, final protein amounts: ~1.25 μg protein/well for MAO-A and ~2.5 μg protein/well for MAO-B) on 96-well black plate and incubated for 15 min at 37 °C. Then, 100 μL of reaction working solution which is a mixed solution of 400 μM Amplex Red® (Cayman, final concentration: 200 μM), 2 U/mL horseradish peroxidase (Sigma-Aldrich, final concentration: 1 U/mL) and 2 mM substrate (p-tyramine for MAO-A, benzylamine for MAO-B, Sigma-Aldrich, final concentration: 1 mM) in 50 mM sodium phosphate buffer (pH 7.4) were added and incubated for 20 min at 37 °C in the dark. The fluorescent intensity was quantified using a microplate reader (SpectraMax®i3, Molecular Device) with an excitation at 545 nm and an emission at 590 nm. The 50% inhibitory concentrations (IC50) of compounds were determined as the mean ± S.E.M. in triplicate from the dose-response inhibition curves using SigmaPlot® 13.0 (Systat Software Inc., San Jose, CA, USA).

For `COC(=O)c1ccc2c(ccn2C(=O)c2ccc(Cl)c(Cl)c2)c1` [Compound 7b, Methyl 1-(3,4-dichlorobenzoyl)-1H-indole-5-carboxylate], which IC50 is on record?
The IC50 was > 100 µM.

And the inhibition at 10 µM?
The inhibition at 10 µM was < 10%.

And the inhibition at 30 µM?
The inhibition at 30 µM was < 10%.

And the inhibition at 100 µM?
Its inhibition at 100 µM is < 10%.

For `O=C(Nc1ccc(Br)cc1)c1ccc2[nH]ccc2c1` [Compound 8b, N-(4-bromophenyl)-1H-indole-5-carboxamide], which IC50 is on record?
The IC50 was > 100 µM.

What about the inhibition at 10 µM of the same compound?
The inhibition at 10 µM was 15.1%.

And the inhibition at 30 µM?
Its inhibition at 30 µM is 27.9%.

What about the inhibition at 100 µM of the same compound?
Its inhibition at 100 µM is 30.1%.

What does the source list for `O=C(Nc1ccc2c(c1)OCO2)c1ccc2[nH]ccc2c1` [Compound 8e, N-(benzo[d][1,3]dioxol-5-yl)-1H-indole-5-carboxamide]?
IC50: > 100 µM; inhibition at 10 µM: < 10%; inhibition at 30 µM: < 10%; inhibition at 100 µM: < 10%

With `O=C(Nc1ccc(I)cc1)c1ccc2[nH]ccc2c1` [Compound 8a, N-(4-iodophenyl)-1H-indole-5-carboxamide] as the compound, how does the IC50 read?
The IC50 was > 100 µM.

What about the inhibition at 10 µM of the same compound?
Its inhibition at 10 µM is 17.2%.

And the inhibition at 30 µM?
The inhibition at 30 µM was 21.7%.

What about the inhibition at 100 µM of the same compound?
The inhibition at 100 µM was 23.5%.

Tested on: PC12 cells
Assay: 6-OHDA-induced ROS generation in PC12 cells (H2-DCFDA)
Type: cell-based, rat
Conditions: 10 μM compound, 6-OHDA 50 μM 20 h
Experimental: as §1

With `COC(=O)c1ccc2c(ccn2C(=O)c2ccc(Cl)c(Cl)c2)c1` [Compound 7b, Methyl 1-(3,4-dichlorobenzoyl)-1H-indole-5-carboxylate] as the compound, how does the “Effect on 6-OHDA-induced ROS generation” value read?
The value was “significantly decreased”.

For `O=C(Nc1ccc(Br)cc1)c1ccc2[nH]ccc2c1` [Compound 8b, N-(4-bromophenyl)-1H-indole-5-carboxamide], which “Effect on 6-OHDA-induced ROS generation” value is on record?
Its value is “significantly decreased”.

Which “Effect on 6-OHDA-induced ROS generation” value does the source give for `O=C(Nc1ccc2c(c1)OCO2)c1ccc2[nH]ccc2c1` [Compound 8e, N-(benzo[d][1,3]dioxol-5-yl)-1H-indole-5-carboxamide] here?
The value was “significantly decreased”.

For `O=C(Nc1ccc(I)cc1)c1ccc2[nH]ccc2c1` [Compound 8a, N-(4-iodophenyl)-1H-indole-5-carboxamide], which “Effect on 6-OHDA-induced ROS generation” value is on record?
Its value is “not effective”.

Tested on: not listed separately
Assay: DPPH radical scavenging activity (cell-free)
Conditions: 30 and 100 µM
Experimental: DPPH radical scavenging activities of test compounds were assessed as previously described. Briefly, the reaction mixture containing desired concentrations of test compounds and DPPH radical solution (150 µM) prepared in 95% methanol was incubated for 30 min at 37 °C. The absorbance of the mixture was measured at 520 nm in a microplate reader (SpectraMax M2e). The radical scavenging activity was calculated using the following equation:DPPH radical scavenging activity (%) = 100 × (Abscontrol − Abssample)/Abscontrol where Abscontrol and Abssample represent the absorbances in the absence and in the presence of test compounds, respectively.

Which “Maximal DPPH radical scavenging effect” value does the source give for `O=C(Nc1ccc(Br)cc1)c1ccc2[nH]ccc2c1` [Compound 8b, N-(4-bromophenyl)-1H-indole-5-carboxamide] here?
The value was “approximately 10%”.

Same assay, conditions: cell-free, DPPH 150 µM

For `COC(=O)c1ccc2c(ccn2C(=O)c2ccc(Cl)c(Cl)c2)c1` [Compound 7b, Methyl 1-(3,4-dichlorobenzoyl)-1H-indole-5-carboxylate], which “DPPH radical scavenging activity (in words)” value is on record?
Its value is “mild DPPH radical scavenging activities”.

For `O=C(Nc1ccc(Br)cc1)c1ccc2[nH]ccc2c1` [Compound 8b, N-(4-bromophenyl)-1H-indole-5-carboxamide], which “DPPH radical scavenging activity (in words)” value is on record?
The value was “mild DPPH radical scavenging activity; also recorded: mild DPPH radical scavenging activities”.

With `O=C(Nc1ccc2c(c1)OCO2)c1ccc2[nH]ccc2c1` [Compound 8e, N-(benzo[d][1,3]dioxol-5-yl)-1H-indole-5-carboxamide] as the compound, how does the “DPPH radical scavenging activity (in words)” value read?
The value was “mild DPPH radical scavenging activities”.
